This is an account of results in US11058652B2, “Methods for treatment of Prader-Willi syndrome” (Yissum Research Development Company of the Hebrew …, priority 2016, dated 2021).

For the test, the system named is Magel2-null mice. Briefly: Effect of HU-671 on preventing bone loss in female Magel2 mice (μCT of distal femoral metaphysis). It counts as in vivo. The following applies: 0.5 mg/kg IP daily for 6 weeks. How it is done:
The effect of HU-671 on preventing bone loss in female Magel2 mice and their littermates as controls was tested. Forty (40) 6-week old female mice were treated daily with HU-671 (0.5 mg/kg, IP) for a period of 6 weeks. Twenty-four (24) hours following the last administration of HU-671, a complete structural analysis of the trabecular and cortical bone in the distal femoral metaphysis was performed. The femora were fixed in phosphate buffered formalin for 48 hours and further kept at 70% ethanol. They were examined by a micro computed tomography (μCT) system. Scans were performed at 20-μm resolution in all three spatial dimensions. The mineralized tissues were differentially segmented by a global thresholding procedure.

For the compound `CCCCCCCC/C=C\CCCCCCCC(=O)NC(C)(CO)C(=O)O` (racemic) [HU-671, N-oleoyl α-methyl-DL-serine], the “Tb.N (trabecular number)” value is reported as “increasing”, the “Tb.Th (trabecular thickness)” value is on record as “enhancing”, the “bone volume density (BV/TV)” value is “stimulated increase” and the “connectivity density in the trabecular bone (Conn.D)” value is “significantly rescued”. The cortical parameters result is listed as “improved” and the “reduction in Cort.Th (cortical thickness)” value is given as “completely prevent”. For the same compound, the trabecular bone loss entry (vs vehicle-treated) is “completely prevented”.
